Experimental data as given in PubChem BioAssay (NCI).
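48-hour exposure; five concentrations; linearly interpolated endpoints. GI50 marks 50% less growth. TGI denotes the concentration required for complete inhibition of growth.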

What was measured:
Experiment in all cases: NCI-60 cell line screen, 48 h
786-0 renal = tested on: 786-0 renal
A498 renal = tested on: A498 renal
A549 NSCLC = tested on: A549 NSCLC
ACHN renal = tested on: ACHN renal
BT-549 breast = tested on: BT-549 breast
CAKI-1 renal = tested on: CAKI-1 renal
CCRF-CEM leukemia = tested on: CCRF-CEM leukemia
COLO 205 colon = tested on: COLO 205 colon
DU-145 prostate = tested on: DU-145 prostate
EKVX NSCLC = tested on: EKVX NSCLC
HCC-2998 colon = tested on: HCC-2998 colon
HCT-116 colon = tested on: HCT-116 colon
HCT-15 colon = tested on: HCT-15 colon
HL-60(TB) leukemia = tested on: HL-60(TB) leukemia
HOP-62 NSCLC = tested on: HOP-62 NSCLC
HOP-92 NSCLC = tested on: HOP-92 NSCLC
HS 578T breast = tested on: HS 578T breast
HT29 colon = tested on: HT29 colon
IGROV1 ovarian = tested on: IGROV1 ovarian
K-562 leukemia = tested on: K-562 leukemia
KM12 colon = tested on: KM12 colon
LOX IMVI melanoma = tested on: LOX IMVI melanoma
M14 melanoma = tested on: M14 melanoma
MALME-3M melanoma = tested on: MALME-3M melanoma
MCF7 breast = tested on: MCF7 breast
MDA-MB-231 breast = tested on: MDA-MB-231 breast
MDA-MB-435 = tested on: MDA-MB-435
MDA-MB-468 breast = tested on: MDA-MB-468 breast
MOLT-4 leukemia = tested on: MOLT-4 leukemia
NCI-H226 lung = tested on: NCI-H226 lung

What does the source list for CCOc1ccc(-c2cc(-c3cc(C(C)C)c(O)cc3C)nn2-c2ccc(S(N)(=O)=O)cc2)cc1?
GI50 (786-0 renal): 11.2 µM; TGI (786-0 renal): 23.3 µM; GI50 (A498 renal): 13.4 µM; TGI (A498 renal): 26.4 µM; GI50 (A549 NSCLC): 4.62 µM; TGI (A549 NSCLC): 19.2 µM; GI50 (ACHN renal): 10.5 µM; TGI (ACHN renal): 22.3 µM; GI50 (BT-549 breast): 2.93 µM; TGI (BT-549 breast): 11.4 µM; GI50 (CAKI-1 renal): 4.92 µM; TGI (CAKI-1 renal): 18 µM; GI50 (CCRF-CEM leukemia): 2.86 µM; TGI (CCRF-CEM leukemia): 13.8 µM; GI50 (COLO 205 colon): 17.1 µM; TGI (COLO 205 colon): 31.7 µM; GI50 (DU-145 prostate): 7.07 µM; TGI (DU-145 prostate): 19.9 µM; GI50 (EKVX NSCLC): 3.96 µM; TGI (EKVX NSCLC): 15.2 µM; GI50 (HCC-2998 colon): 3.87 µM; TGI (HCC-2998 colon): 12.7 µM; GI50 (HCT-116 colon): 5.46 µM; TGI (HCT-116 colon): 18.2 µM; GI50 (HCT-15 colon): 3.61 µM; TGI (HCT-15 colon): 14.4 µM; GI50 (HL-60(TB) leukemia): 4.81 µM; TGI (HL-60(TB) leukemia): 37.3 µM; GI50 (HOP-62 NSCLC): 10.4 µM; TGI (HOP-62 NSCLC): 23.4 µM; GI50 (HOP-92 NSCLC): 2.82 µM; TGI (HOP-92 NSCLC): 13 µM; GI50 (HS 578T breast): 5.8 µM; TGI (HS 578T breast): 25.9 µM; GI50 (HT29 colon): 15.4 µM; TGI (HT29 colon): 29.5 µM; GI50 (IGROV1 ovarian): 12.1 µM; TGI (IGROV1 ovarian): 24.9 µM; GI50 (K-562 leukemia): 3.38 µM; TGI (K-562 leukemia): > 100 µM; GI50 (KM12 colon): 3.47 µM; TGI (KM12 colon): 13.4 µM; GI50 (LOX IMVI melanoma): 5.65 µM; TGI (LOX IMVI melanoma): 18.3 µM; GI50 (M14 melanoma): 9.86 µM; TGI (M14 melanoma): 22.4 µM; GI50 (MALME-3M melanoma): 11 µM; TGI (MALME-3M melanoma): 23.4 µM; GI50 (MCF7 breast): 4.88 µM; TGI (MCF7 breast): 19.2 µM; GI50 (MDA-MB-231 breast): 6.78 µM; TGI (MDA-MB-231 breast): 20.3 µM; GI50 (MDA-MB-435): 1.91 µM; TGI (MDA-MB-435): 4.44 µM; GI50 (MDA-MB-468 breast): 2.39 µM; TGI (MDA-MB-468 breast): 6.76 µM; GI50 (MOLT-4 leukemia): 4.02 µM; TGI (MOLT-4 leukemia): 17.6 µM; GI50 (NCI-H226 lung): 15.7 µM
